Experimental findings from patent publication US20160185774A1, “Anti-Infective Compounds” (priority 2013, published 2016) are described below.

≈ marks a conversion by molar mass, not a printed value. Some results are limits rather than exact numbers.

The assay relates to M. tuberculosis. Kind of assay: microbe, parasite or virus in culture. The format is cell-based. The conditions noted are these: Mycobacterium tuberculosis, 120 h; read-out: QUM (MIC80).

As for `CCc1nc2c(OC)cccn2c1C(=O)NCc1ccc(N2CCC(c3ccccc3)CC2)cc1` [Compound 177], the MIC80 was less than 1 µM.

Take `CCc1nc2ccc(C(F)(F)F)cn2c1C(=O)NCc1ccc(N2CCC(c3ccccc3)CC2)cc1` [Compound 178]: the MIC80 was less than 1 µM.

Regarding `CCc1nc2ccc(OC)cn2c1C(=O)NCc1ccc(N2CCC(c3ccc(F)cc3)CC2)cc1` [Compound 179], the MIC80 was less than 1 µM.

`CCc1nc2ccccn2c1C(=O)NCc1ccc(N2CCC(c3ccc(OC)cc3)CC2)cc1` [Compound 180]: the MIC80 is less than 1 µM.

Turning to `CCc1nc2c(C)cccn2c1C(=O)NCc1ccc(N2CCC(c3ccc(OC(F)(F)F)cc3)CC2)cc1` [Compound 181], the MIC80 was less than 1 µM.

In the case of `CCc1nc2ccc(OC)cn2c1C(=O)NCc1ccc(N2CCC(c3ccc(OC(F)(F)F)cc3)CC2)cc1` [Compound 182], the MIC80 was less than 1 µM.

Take `CCc1nc2c(Cl)cccn2c1C(=O)NCc1ccc(N2CCC(c3ccc(F)cc3)CC2)cc1` [Compound 183]: the MIC80 was less than 1 µM.

In the case of `CCc1nc2cc(OC)ccn2c1C(=O)NCc1ccc(N2CCC(c3ccc(OC(F)(F)F)cc3)CC2)cc1` [Compound 184], the MIC80 is less than 1 µM.

Regarding `CCc1nc2c(Br)cccn2c1C(=O)NCc1ccc(N2CCC(c3ccc(OC(F)(F)F)cc3)CC2)cc1` [Compound 185], the MIC80 lay within 1 to 20 µM (≈ 0.601 to 12 µg/mL).

For `CCc1nc2cc(C(F)(F)F)ccn2c1C(=O)NCc1ccc(N2CCC(c3ccc(Cl)cc3)CC2)cc1` [Compound 186], the MIC80 is less than 1 µM.

With `CCc1nc2ccc(Br)cn2c1C(=O)NCc1ccc(N2CCC(c3ccc(OC(F)(F)F)cc3)CC2)cc1` [Compound 187], the MIC80 was less than 1 µM.

In the case of `CCc1nc2ccc(C(F)(F)F)cn2c1C(=O)NCc1ccc(N2CCN(c3ccc(OC(F)(F)F)cc3)CC2)cc1` [Compound 188], the MIC80 is less than 1 µM.

Turning to `CCc1nc2c(Br)cccn2c1C(=O)NCc1ccc(N2CCC(c3ccc(F)cc3)CC2)cc1` [Compound 189], the MIC80 lay in the range of 1 to 20 µM (≈ 0.535 to 10.7 µg/mL).

`CCc1nc2c(Cl)cccn2c1C(=O)NCc1ccc(N2CCC(c3ccccc3)CC2)cc1` [Compound 190]: the MIC80 was less than 1 µM.

Turning to `CCc1nc2cc(Br)ccn2c1C(=O)NCc1ccc(N2CCC(c3ccc(OC(F)(F)F)cc3)CC2)cc1` [Compound 191], the MIC80 was less than 1 µM.

In the case of `CCc1nc2cc(Br)ccn2c1C(=O)NCc1ccc(N2CCN(c3ccc(OC(F)(F)F)cc3)CC2)cc1` [Compound 192], the MIC80 is less than 1 µM.

For `CCc1nc2c(F)cccn2c1C(=O)NCc1ccc(N2CCN(c3ccc(OC(F)(F)F)cc3)CC2)cc1` [Compound 193], the MIC80 is less than 1 µM.

On to `CCc1nc2cc(Cl)ccn2c1C(=O)NCc1ccc(N2CCN(c3ccc(Cl)cc3)CC2)cc1` [Compound 194], for which the MIC80 was less than 1 µM.

As for `CCc1nc2cc(OC)ccn2c1C(=O)NCc1ccc(N2CCC(c3ccc(C(F)(F)F)cc3)CC2)cc1` [Compound 195], the MIC80 is less than 1 µM.

Turning to `CCc1nc2ccc(Br)cn2c1C(=O)NCc1ccc(N2CCN(c3ccc(OC(F)(F)F)cc3)CC2)cc1` [Compound 197], the MIC80 is less than 1 µM.

As to `CCc1nc2c(C(F)(F)F)cccn2c1C(=O)NCc1ccc(N2CCN(c3ccc(F)cc3)CC2)cc1` [Compound 198], the MIC80 was 1 to 20 µM (≈ 0.526 to 10.5 µg/mL).

As for `CCc1nc2c(Br)cccn2c1C(=O)NCc1ccc(N2CCN(c3ccc(Cl)cc3)CC2)cc1` [Compound 199], the MIC80 is less than 1 µM.

With `CCc1nc2c(OC)cccn2c1C(=O)NCc1ccc(N2CCN(c3ccc(OC(F)(F)F)cc3)CC2)cc1` [Compound 200], the MIC80 was 1 to 20 µM (≈ 0.554 to 11.1 µg/mL).

As to `CCc1nc2ccc(Br)cn2c1C(=O)NCc1ccc(N2CCN(c3ccc(Cl)cc3)CC2)cc1` [Compound 201], the MIC80 is less than 1 µM.

Regarding `CCc1nc2c(C(F)(F)F)cccn2c1C(=O)NCc1ccc(N2CCN(c3ccc(OC(F)(F)F)cc3)CC2)cc1` [Compound 202], the MIC80 lay in the range of 1 to 20 µM (≈ 0.592 to 11.8 µg/mL).

`CCc1nc2cc(C(F)(F)F)ccn2c1C(=O)NCc1ccc(N2CCN(c3ccc(OC(F)(F)F)cc3)CC2)cc1` [Compound 203]: the MIC80 was less than 1 µM.

On to `CCc1nc2cc(Cl)ccn2c1C(=O)NCc1ccc(N2CCN(c3ccc(C(F)(F)F)cc3)CC2)cc1` [Compound 204], for which the MIC80 is less than 1 µM.

On to `CCc1nc2cc(Cl)ccn2c1C(=O)NCc1ccc(N2CCC(c3ccc(OC)cc3)CC2)cc1` [Compound 205], for which the MIC80 was less than 1 µM.

For the molecule `CCc1nc2cc(C(F)(F)F)ccn2c1C(=O)NCc1ccc(N2CCN(c3ccc(C(F)(F)F)cc3)CC2)cc1` [Compound 206], the MIC80 is less than 1 µM.

For the molecule `CCc1nc2cc(Br)ccn2c1C(=O)NCc1ccc(N2CCN(c3ccc(C)cc3)CC2)cc1` [Compound 207], the MIC80 is less than 1 µM.

As for `CCc1nc2cc(Br)ccn2c1C(=O)NCc1ccc(N2CCN(c3ccc(OC)cc3)CC2)cc1` [Compound 208], the MIC80 was less than 1 µM.

Regarding `CCc1nc2c(C(F)(F)F)cccn2c1C(=O)NCc1ccc(N2CCN(c3ccc(Cl)cc3)CC2)cc1` [Compound 209], the MIC80 was 1 to 20 µM (≈ 0.542 to 10.8 µg/mL).

Consider `CCc1nc2ccc(OC)cn2c1C(=O)NCc1ccc(N2CCN(c3ccc(C(F)(F)F)cc3)CC2)cc1` [Compound 210], for which the MIC80 was less than 1 µM.

With `CCc1nc2cc(C(F)(F)F)ccn2c1C(=O)NCc1ccc(N2CCN(c3ccc(Cl)cc3)CC2)cc1` [Compound 211], the MIC80 was less than 1 µM.

With `CCc1nc2c(OC)cccn2c1C(=O)NCc1ccc(N2CCC(c3ccc(Cl)cc3)CC2)cc1` [Compound 212], the MIC80 lay within 1 to 20 µM (≈ 0.503 to 10.1 µg/mL).

Regarding `CCc1nc2c(Br)cccn2c1C(=O)NCc1ccc(N2CCC(c3ccc(Cl)cc3)CC2)cc1` [Compound 213], the MIC80 was less than 1 µM.

Turning to `CCc1nc2cc(Br)ccn2c1C(=O)NCc1ccc(N2CCN(c3ccc(C(F)(F)F)cc3)CC2)cc1` [Compound 214], the MIC80 was less than 1 µM.

Regarding `CCc1nc2c(OC)cccn2c1C(=O)NCc1ccc(N2CCC(c3ccc(C)cc3)CC2)cc1` [Compound 215], the MIC80 was in the range of 1 to 20 µM (≈ 0.483 to 9.65 µg/mL).

Consider `CCc1nc2ccc(C)cn2c1C(=O)NCc1ccc(N2CCC(c3ccccc3)CC2)cc1` [Compound 216], for which the MIC80 was less than 1 µM.

`CCc1nc2c(C(F)(F)F)cccn2c1C(=O)NCc1ccc(N2CCN(c3ccc(C(F)(F)F)cc3)CC2)cc1` [Compound 217]: the MIC80 fell in the range of 1 to 20 µM (≈ 0.576 to 11.5 µg/mL).

`CCc1nc2c(Br)cccn2c1C(=O)NCc1ccc(N2CCN(c3ccc(C(F)(F)F)cc3)CC2)cc1` [Compound 218]: the MIC80 is less than 1 µM.

As to `CCc1nc2cc(Br)ccn2c1C(=O)NCc1ccc(N2CCC(c3ccc(C)cc3)CC2)cc1` [Compound 219], the MIC80 is less than 1 µM.

`CCc1nc2cc(OC)ccn2c1C(=O)NCc1ccc(N2CCN(c3ccc(Cl)cc3)CC2)cc1` [Compound 220]: the MIC80 is less than 1 µM.

`CCc1nc2cc(Cl)ccn2c1C(=O)NCc1ccc(N2CCC(c3ccc(C)cc3)CC2)cc1` [Compound 221]: the MIC80 is less than 1 µM.

In the case of `CCc1nc2ccc(C)cn2c1C(=O)NCc1ccc(N2CCC(c3ccc(OC)cc3)CC2)cc1` [Compound 222], the MIC80 was less than 1 µM.

`CCc1nc2ccc(C(F)(F)F)cn2c1C(=O)NCc1ccc(N2CCC(c3ccc(OC(F)(F)F)cc3)CC2)cc1` [Compound 223]: the MIC80 is less than 1 µM.

On to `CCc1nc2c(Cl)cccn2c1C(=O)NCc1ccc(N2CCC(c3ccc(OC(F)(F)F)cc3)CC2)cc1` [Compound 224], for which the MIC80 was less than 1 µM.

As to `CCc1nc2c(C)cccn2c1C(=O)NCc1ccc(N2CCC(c3ccc(F)cc3)CC2)cc1` [Compound 225], the MIC80 is less than 1 µM.

Turning to `CCc1nc2ccc(C(F)(F)F)cn2c1C(=O)NCc1ccc(N2CCC(c3ccc(Cl)cc3)CC2)cc1` [Compound 226], the MIC80 was less than 1 µM.

With `CCc1nc2ccc(C(F)(F)F)cn2c1C(=O)NCc1ccc(N2CCC(c3ccc(F)cc3)CC2)cc1` [Compound 227], the MIC80 was less than 1 µM.

As to `CCc1nc2cc(C(F)(F)F)ccn2c1C(=O)NCc1ccc(N2CCC(c3ccc(OC(F)(F)F)cc3)CC2)cc1` [Compound 228], the MIC80 is less than 1 µM.

With `CCc1nc2cc(F)ccn2c1C(=O)NCc1ccc(N2CCN(c3ccc(C(F)(F)F)cc3)CC2)cc1` [Compound 229], the MIC80 is less than 1 µM.

For `CCc1nc2ccccn2c1C(=O)NCc1ccc(N2CCC(c3ccc(C(F)(F)F)cc3)CC2)cc1` [Compound 230], the MIC80 was less than 1 µM.

Regarding `CCc1nc2cc(C)ccn2c1C(=O)NCc1ccc(N2CCC(c3ccc(C)cc3)CC2)cc1` [Compound 231], the MIC80 is less than 1 µM.

Take `CCc1nc2ccc(Cl)cn2c1C(=O)NCc1ccc(N2CCC(NC(=O)Cc3ccc(F)cc3)CC2)cc1` [Compound 232]: the MIC80 was more than 20 µM.

Turning to `CCc1nc2ccc(Cl)cn2c1C(=O)NCc1ccc(N2CCC(OCc3ccccc3)CC2)cc1` [Compound 233], the MIC80 was less than 1 µM.

For the molecule `CCc1nc2ccc(Cl)cn2c1C(=O)NCc1ccc(N2CCC(NC(=O)c3ccc(F)cc3)CC2)cc1` [Compound 234], the MIC80 is more than 20 µM.

In the case of `CCc1nc2ccc(Cl)cn2c1C(=O)NCc1ccc(N2CCN(C(=O)c3ccc(F)cc3)CC2)cc1` [Compound 235], the MIC80 is less than 1 µM.

Take `CCc1nc2ccc(Cl)cn2c1C(=O)NCc1ccc(N2CCN(C(=O)Cc3ccc(F)cc3)CC2)cc1` [Compound 236]: the MIC80 was less than 1 µM.

Regarding `CCc1nc2ccc(Cl)cn2c1C(=O)NCc1ccc(N2CCC(C)(O)CC2)cc1` [Compound 237], the MIC80 was less than 1 µM.

With `CCc1nc2ccc(Cl)cn2c1C(=O)NCc1ccc(N2CCC(O)(CC)CC2)cc1` [Compound 238], the MIC80 is less than 1 µM.

Take `CCc1nc2ccc(Cl)cn2c1C(=O)NCc1ccc(N2CCC(O)(c3ccccc3)CC2)cc1` [Compound 239]: the MIC80 was less than 1 µM.

With `CCc1nc2ccc(Cl)cn2c1C(=O)NCc1ccc(N2CCC(C(=O)c3ccc(F)cc3)CC2)cc1` [Compound 240], the MIC80 is less than 1 µM.

On to `CCc1nc2ccc(Cl)cn2c1C(=O)NCc1ccc(N2CCC(C(=O)c3ccc(OC(F)(F)F)cc3)CC2)cc1` [Compound 241], for which the MIC80 is less than 1 µM.

Consider `CCc1nc2ccc(Cl)cn2c1C(=O)NCc1ccc(N2CCC(C(=O)Cc3ccc(F)cc3)CC2)cc1` [Compound 242], for which the MIC80 was less than 1 µM.

Consider `CCc1nc2ccc(Cl)cn2c1C(=O)NCc1ccc(C2CCN(C(=O)c3ccc(F)cc3)CC2)cc1` [Compound 243], for which the MIC80 is less than 1 µM.

On to `CCc1nc2ccc(Cl)cn2c1C(=O)NCc1ccc(/C=C/c2ccc(F)cc2)cc1` [Compound 246], for which the MIC80 was less than 1 µM.
